Measurements reported in patent publication US9650417B2, “Treatments for gastrointestinal disorders” (Ironwood Pharmaceuticals, Inc., priority 2011, dated 2017).
Bridge positions count the residues as written; N and C are the ends. Square brackets hold non-standard residues; d marks the D form. Peptide text beside a SMILES is read from it. pS = N[C@@H](COP(=O)(O)O)C(=O)O

What was measured:
[1] = In vitro metabolism in mouse jejunum loop fluid; assay type: in vitro ADME; conditions: for metabolism in control reaction: 120 minute incubation; for degradation rate compared with peptide 2: mouse intestinal fluid
Protocol: The purpose of this study was to determine the stability of phosphorylated peptides in mouse jejunal loop fluid. […] The isotopically labeled peptide 2 was synthesized with ^13C, ^15N-labeled alanine and leucine (i.e., with a sequence CCpS[^13C6, ^15N]LCCNP[^13C6, ^15N]ACTGC).
Each peptide was synthesized by American Peptide Company, Inc., and was stored desiccated at −20° C. A 1 mg/mL solution for each of the non-labeled peptides was prepared in 1 M tris(hydroxymethyl)aminomethane hydrochloride (Tris-HCl), pH 8 just prior to conducting the mouse intestinal loop fluid assay. A 500 ng/mL solution of ^13C, ^15N-labeled peptide 2 was prepared in 0.1% formic acid in water and was utilized to dilute the jejunum samples for post-assay LC-MS/MS analysis.
To collect the fluid, mice were fasted overnight with full access to water. They were then anesthetized with isofluorane for surgery and subjected to laparotomy in which the small intestine was exteriorized. Jejunum loops of 3 to 4 cm in length were made with sutures starting at 7 cm from the pyloric sphincter of the stomach. Once the loops were formed, they were injected with 200 μL of phosphate buffered saline (PBS) buffer (10 mM, pH 7.4). The abdominal wall and skin of the animals were then sutured, and the animals were allowed to recover for 30 minutes. Following recovery, the animals were sacrificed, the loops were then excised and the fluid inside was recovered and stored at −80° C. until use.
For each peptide, 25 μL of the 1 mg/mL peptide stock solution was added to 25 μL of 1 M Tris-HCl and 25 μL of 10× calf intestinal phosphatase (CIP) buffer containing 500 mM Tris-HCl, 1 M sodium chloride (NaCl), 0.1 mM magnesium chloride (MgCl2), pH 8. The reactions were initiated by adding 175 μL of the mouse jejunum loop fluid or 175 μL of the 1 M Tris-HCl pH8 buffer for the control reactions. The final concentration of each peptide was 100 μg/mL. The reactions were continuously mixed and maintained at 37° C. on a plate shaker. At 0, 2, 5, 10, 20, 30, 60, 90 and 120 minutes after adding the mouse intestinal loop fluid, a 25 μL aliquot was taken and added to 25 μL of 4° C. 12% trichloroacetic acid to stop the reaction. An additional 200 μL of 0.1% formic acid in water was added to these reactions for dilution purposes. These samples were then further diluted by taking 20 μL of each sample and adding it to 480 μL of 0.1% formic acid in water containing 500 ng/mL of the internal standard 13C, 15N-labeled peptide 2.
All samples were analyzed using an Applied Biosystems/MDS SCIEX API 4000 triple quadrupole mass spectrometer equipped with a high-performance liquid chromatography (HPLC) system. The mass spectrometer was operated in multiple reaction monitoring (MRM) mode, with resolution set to 1.2 Da.
The LC-MS/MS data were processed using Analyst version 1.4.2 software (Applied Biosystems/MDS SCIEX). The peak area ratio (ratio of analyte peak area to internal standard peak area) was used to calculate the percent remaining of each peptide.

[2] = target: T1, Calf intestinal alkaline phosphatase (CIP) (Bos taurus, UniProt P19111); test: Alkaline phosphatase reaction (dephosphorylation of peptide substrates); assay type: in vitro ADME; conditions: with and without calf intestinal alkaline phosphatase; data not shown
T1 construct: purchased New England BioLabs, Ipswich, Mass; MO290S
T1 sequence (P19111 20-506): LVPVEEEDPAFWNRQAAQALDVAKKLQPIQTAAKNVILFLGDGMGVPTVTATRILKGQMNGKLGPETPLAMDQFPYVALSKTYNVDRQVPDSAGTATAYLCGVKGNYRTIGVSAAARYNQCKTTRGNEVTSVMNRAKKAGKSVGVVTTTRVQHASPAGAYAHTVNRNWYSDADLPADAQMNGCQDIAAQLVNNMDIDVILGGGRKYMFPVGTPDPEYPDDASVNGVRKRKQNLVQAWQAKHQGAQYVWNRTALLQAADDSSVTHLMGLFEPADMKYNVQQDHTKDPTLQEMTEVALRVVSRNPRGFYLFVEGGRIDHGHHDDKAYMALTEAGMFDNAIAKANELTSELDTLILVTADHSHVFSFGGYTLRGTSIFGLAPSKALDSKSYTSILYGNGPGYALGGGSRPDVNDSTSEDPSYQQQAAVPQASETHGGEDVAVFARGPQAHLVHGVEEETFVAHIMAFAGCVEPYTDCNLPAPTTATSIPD
Protocol: For the alkaline phosphatase reactions, peptide stocks were prepared at 1 mg/mL in 0.1 M Tris-HCl pH 8, which were stored at −20° C. until assays were conducted. For the acid phosphatase reactions, peptide stocks were prepared at 1 mg/mL in 50 mM sodium phosphate pH 6, which was stored at −20° C. until assays were conducted.
Calf intestinal alkaline phosphatase (CIP) was obtained from New England BioLabs, Ipswich, Mass. Cat # MO290S. The CIP reaction solution was prepared by dilution with buffer (50 mM KCl, 10 mM Tris-HCl pH 8, 1 mM MgCl2, 50% glycerol) to 0.5 units/μL. The alkaline phosphatase reaction solutions were assembled in 20 μL quantities containing:
2 μL 10×CIP buffer (1M NaCl, 500 mM Tris-HCl pH 8, 100 mM MgCl2)
2 μL peptide stock (1 mg/mL)
4 μL alkaline phosphatase (0, 0.5 or 2 units)
The reaction solutions were mixed gently and incubated for 90 minutes at 37° C. These reaction solutions were stored at −20° C. until analysis. For analysis, the reaction solutions were diluted from 7.5 μL of CIP treated peptide to 50 μL with 0.1% formic acid in water to a final concentration of 10 μM.
Control reactions were assembled for enzyme activity containing 10 mM p-nitrophenylphosphate in place of peptide. After incubation, the reactions were diluted with 0.1 mL of 100 mM borate buffer pH 9 and read at the absorbance of 405 nm to monitor p-nitrophenol appearance.

GC-C = target: T2, GC-C (Homo sapiens, UniProt P25092); test: cGMP accumulation in T84 cells for analysis of GC-C activity; assay type: cell-based
T2 construct: endogenous in cells; host or cells: T84 cells
T2 sequence (P25092 24-1073): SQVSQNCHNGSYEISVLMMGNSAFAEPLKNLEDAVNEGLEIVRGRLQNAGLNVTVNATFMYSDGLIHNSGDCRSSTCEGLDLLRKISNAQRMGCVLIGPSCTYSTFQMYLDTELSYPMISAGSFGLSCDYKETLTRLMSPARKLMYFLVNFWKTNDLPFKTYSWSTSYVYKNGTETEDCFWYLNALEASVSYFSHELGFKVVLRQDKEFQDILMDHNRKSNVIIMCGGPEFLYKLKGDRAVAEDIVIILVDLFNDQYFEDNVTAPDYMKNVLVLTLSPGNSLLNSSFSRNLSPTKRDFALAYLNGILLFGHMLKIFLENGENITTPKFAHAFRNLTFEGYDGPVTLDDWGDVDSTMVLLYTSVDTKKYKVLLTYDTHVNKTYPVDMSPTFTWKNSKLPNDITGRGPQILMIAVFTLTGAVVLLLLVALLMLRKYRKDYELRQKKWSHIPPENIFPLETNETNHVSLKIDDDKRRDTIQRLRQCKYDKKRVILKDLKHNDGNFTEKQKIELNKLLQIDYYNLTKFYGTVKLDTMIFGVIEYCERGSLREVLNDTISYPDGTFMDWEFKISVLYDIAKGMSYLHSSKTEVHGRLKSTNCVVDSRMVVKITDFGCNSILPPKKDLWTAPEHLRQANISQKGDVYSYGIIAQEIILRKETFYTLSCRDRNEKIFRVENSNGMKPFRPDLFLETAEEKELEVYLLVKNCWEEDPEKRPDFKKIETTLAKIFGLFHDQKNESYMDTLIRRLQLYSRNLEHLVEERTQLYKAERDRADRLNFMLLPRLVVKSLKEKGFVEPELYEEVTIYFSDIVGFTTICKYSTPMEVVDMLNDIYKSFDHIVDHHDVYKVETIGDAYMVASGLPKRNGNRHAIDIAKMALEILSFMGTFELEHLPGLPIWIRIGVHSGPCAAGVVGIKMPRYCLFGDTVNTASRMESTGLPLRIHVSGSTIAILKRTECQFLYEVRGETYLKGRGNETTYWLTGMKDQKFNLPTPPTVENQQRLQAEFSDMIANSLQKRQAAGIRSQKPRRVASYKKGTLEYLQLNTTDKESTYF
Protocol: For the cGMP assay, 4.5×10^5 cells/mL of T84 cells were grown overnight in 24 well tissue culture plates. […] After the second wash, the cells were incubated with 450 μL of 1 mM isobutylmethylxanthine (IBMX) in either the pH 5 or pH 8 buffers for 10 minutes at 37° C. to inhibit any phosphodiesterase activity. The peptides were then diluted in either pH 5 or pH 8 buffer to a 10× concentration. The peptide solution of 50 μL was diluted to a final volume of 500 μL with the T84 cells, bringing each peptide concentration to 1×. An eleven point curve analysis was conducted for each peptide, with final peptide concentrations tested in each assay, in nM: 10000, 3000, 1000, 300, 100, 30, 10, 3, 1, 0.3, 0.1.
There was no peptide control used to determine endogenous levels of cGMP. Peptides were incubated for 30 minutes at 37° C. After 30 minutes, the supernatants were removed and the cells were lysed with 0.1 M HCl. The cells were lysed for 30 minutes on ice. After 30 minutes, lysates were pipetted off and placed into a 96 well HPLC plate and spun at 10,000×g for 10 minutes to remove any cell debris. […]
cGMP concentrations were determined from each sample using the LC/MS conditions in Table 4 and a calculated standard curve. EC50 values were calculated from concentration-response curves generated with GraphPad Prism Software. […]

[3] = oral administration at therapeutic dose levels; cited from earlier work
[4] = control reaction (1 M Tris-HCl) at 37° C.

Row | SMILES | metabolism in control reaction [1, 4] | degradation rate compared with peptide 2 [1] | also measured
1 | CC(C)C[C@@H]1NC(=O)[C@H](CO)NC(=O)[C@@H]2CSSC[C@@H]3NC(=O)[C@H](C)NC(=O)[C@@H]4CCCN4C(=O)[C@H](CC(N)=O)NC(=O)[C@H](CSSC[C@H](N)C(=O)N2)NC(=O)[C@H](CSSC[C@@H](C(=O)O)NC(=O)CNC(=O)[C@H]([C@@H](C)O)NC3=O)NC1=O [Dephospho-Peptide 2, CCSLCCNPACTGC] (H-CCSLCCNPACTGC-OH; disulfide 1-6, 2-10, 5-13 (inferred); N-terminus and C-terminus assumed) | not metabolized | degraded faster | –
2 | CC(C)C[C@@H]1NC(=O)[C@H](COP(=O)(O)O)NC(=O)[C@@H]2CSSC[C@@H]3NC(=O)[C@H](C)NC(=O)[C@@H]4CCCN4C(=O)[C@H](CC(N)=O)NC(=O)[C@H](CSSC[C@H](N)C(=O)N2)NC(=O)[C@H](CSSC[C@@H](C(=O)O)NC(=O)CNC(=O)[C@H]([C@@H](C)O)NC3=O)NC1=O [Peptide 2, CCpSLCCNPACTGC] (H-CC[pS]LCCNPACTGC-OH; disulfide 1-6, 2-10, 5-13 (inferred); N-terminus and C-terminus assumed) | not metabolized | – | formation of metabolite dephospho-peptide 2 in control reaction [1, 4]: no dephospho-peptide 2 was formed
3 | CC(C)C[C@@H]1NC(=O)[C@H](CCC(=O)O)NC(=O)[C@@H]2CSSC[C@@H]3NC(=O)[C@H](C)NC(=O)[C@@H]4CCCN4C(=O)[C@H](CC(N)=O)NC(=O)[C@H](CSSC[C@H](N)C(=O)N2)NC(=O)[C@H](CSSC[C@@H](C(=O)N[C@@H](Cc2ccc(O)cc2)C(=O)O)NC(=O)CNC(=O)[C@H]([C@@H](C)O)NC3=O)NC1=O [Peptide 3, CCELCCNPACTGCY] (H-CCELCCNPACTGCY-OH; disulfide 1-6, 2-10, 5-13 (inferred); N-terminus and C-terminus assumed) | not metabolized | degraded faster | effect of CIP treatment (LC-MS) [2]: not affected; detection of peptide in mouse jejunum fluid ([1]; after 90 minutes, 37° C., 100 μg/mL): not detected
4 | CC(C)C[C@@H]1NC(=O)[C@H](COP(=O)(O)O)NC(=O)[C@@H]2CSSC[C@@H]3NC(=O)[C@H](C)NC(=O)[C@@H]4CCCN4C(=O)[C@H](CC(N)=O)NC(=O)[C@H](CSSC[C@H](NC(=O)[C@H](CC(=O)O)NC(=O)[C@@H](N)CC(=O)O)C(=O)N2)NC(=O)[C@H](CSSC[C@@H](C(=O)N[C@@H](Cc2ccc(O)cc2)C(=O)O)NC(=O)CNC(=O)[C@H]([C@@H](C)O)NC3=O)NC1=O [Peptide 5, DDCCpSLCCNPACTGCY] (H-DDCC[pS]LCCNPACTGCY-OH; disulfide 3-8, 4-12, 7-15 (inferred); N-terminus and C-terminus assumed) | – | – | EC50 (GC-C): 14.7 nM
5 | C[C@@H]1NC(=O)[C@@H]2CCCN2C(=O)[C@H](CC(N)=O)NC(=O)[C@@H]2CSSC[C@H](N)C(=O)N[C@H]3CSSC[C@H](NC1=O)C(=O)N[C@@H]([C@@H](C)O)C(=O)NCC(=O)N[C@H](C(=O)N[C@@H](Cc1ccc(O)cc1)C(=O)O)CSSC[C@H](NC(=O)[C@H](Cc1ccc(O)cc1)NC(=O)[C@H](CCC(=O)O)NC3=O)C(=O)N2 [linaclotide, Linaclotide] (H-CCEYCCNPACTGCY-OH; disulfide 1-6, 2-10, 5-13) | – | – | systemic levels after oral administration [3]: no detectable levels
